Laboratory results reported in PMC11237012, “Synthesis and preliminary evaluation of novel PET probes for GSK-3 imaging” (Scientific Reports, 2024).

What was measured:
[1] = Radiochemical stability in mouse serum (rad-TLC); format: in vitro ADME; settings: 37 °C
Description: (§1) The stability of PET probes [^18F]2 and [^18F]6 was measured in isotonic NaCl solution (0.9% NaCl) and mouse and human serums at 37 °C for up to 120 min by rad-TLC at 0 min, 30 min, 60 min and 120 min post incubation. The results obtained are presented in Fig. 5 and SI-Figs. S10–S15, SI-Table S1. […] The plausible explanation of the instability of [^18F]6 could be attributed to the covalent interaction of [^18F]6’s SO2F group with primary amines of amino acid residues present in the protein rich mouse and human serums. In fact, in an unrelated study, Zhao et al. reported formation of sulfonamide bond between sulfuryl fluoride and primary amine of conserved lysine residues of different kinases. […] Based on 2’s favorable blood–brain barrier permeability, nanomolar binding affinity and PET probe [^18F]2’s excellent stability in both mouse and human serums, further in vivo evaluations were performed only with PET probe [^18F]2.
(§2) Stability of [^18F]2 and [^18F]6 was assessed in isotonic NaCl solution and human and mouse serums. To perform this stability assay, 100 µL of [^18F]2 (~ 37.0 MBq) or 100 µL of [^18F]6 (~ 37.0 MBq) as in final formulation was added to 100 µL of human serum or mouse serum in a microcentrifuge tube. The resultant mixture was incubated at 37 °C for 120 min. To assess the radiochemical stability of the probes, a small aliquot (~ 0.5 µL) was taken out from the mixture in triplicate at 0 min, 30 min, 60 min and 120 min during incubation, and analyzed on a rad-TLC using 0.5:9.5 methanol: chloroform as a mobile phase using i-TLC to estimate the stability of [^18F]2 or [^18F]6 at different time points post-incubation. After Stability preparative processes initial i-TLC development was considered as 0 min.

[2] = Radiochemical stability in isotonic NaCl solution (rad-TLC); format: physicochemical; settings: 37 °C
Description: as §1, §2

Percentage of intact probe ([1]; 0 min): 100 ± 0.0% | Percentage of intact probe ([1]; 30 min): 100 ± 0.0% | Percentage of intact probe ([1]; 60 min): 100 ± 0.0% | Percentage of intact probe ([2]; 0 min): 100 ± 0.0% | Percentage of intact probe ([2]; 30 min): 100 ± 0.0% | Percentage of intact probe ([2]; 60 min): 100 ± 0.0%
Structure (SMILES): O=C(Nc1cnccc1-c1ccc([18F])cc1)c1ccnc(NC(=O)C2CC2)c1 [[^18F]2]
